Common to all, as to format: cell-based
The target of test [1] is T1, mineralocorticoid receptor (MR) (Homo sapiens, UniProt P08235).
T1 sequence (P08235 1-984): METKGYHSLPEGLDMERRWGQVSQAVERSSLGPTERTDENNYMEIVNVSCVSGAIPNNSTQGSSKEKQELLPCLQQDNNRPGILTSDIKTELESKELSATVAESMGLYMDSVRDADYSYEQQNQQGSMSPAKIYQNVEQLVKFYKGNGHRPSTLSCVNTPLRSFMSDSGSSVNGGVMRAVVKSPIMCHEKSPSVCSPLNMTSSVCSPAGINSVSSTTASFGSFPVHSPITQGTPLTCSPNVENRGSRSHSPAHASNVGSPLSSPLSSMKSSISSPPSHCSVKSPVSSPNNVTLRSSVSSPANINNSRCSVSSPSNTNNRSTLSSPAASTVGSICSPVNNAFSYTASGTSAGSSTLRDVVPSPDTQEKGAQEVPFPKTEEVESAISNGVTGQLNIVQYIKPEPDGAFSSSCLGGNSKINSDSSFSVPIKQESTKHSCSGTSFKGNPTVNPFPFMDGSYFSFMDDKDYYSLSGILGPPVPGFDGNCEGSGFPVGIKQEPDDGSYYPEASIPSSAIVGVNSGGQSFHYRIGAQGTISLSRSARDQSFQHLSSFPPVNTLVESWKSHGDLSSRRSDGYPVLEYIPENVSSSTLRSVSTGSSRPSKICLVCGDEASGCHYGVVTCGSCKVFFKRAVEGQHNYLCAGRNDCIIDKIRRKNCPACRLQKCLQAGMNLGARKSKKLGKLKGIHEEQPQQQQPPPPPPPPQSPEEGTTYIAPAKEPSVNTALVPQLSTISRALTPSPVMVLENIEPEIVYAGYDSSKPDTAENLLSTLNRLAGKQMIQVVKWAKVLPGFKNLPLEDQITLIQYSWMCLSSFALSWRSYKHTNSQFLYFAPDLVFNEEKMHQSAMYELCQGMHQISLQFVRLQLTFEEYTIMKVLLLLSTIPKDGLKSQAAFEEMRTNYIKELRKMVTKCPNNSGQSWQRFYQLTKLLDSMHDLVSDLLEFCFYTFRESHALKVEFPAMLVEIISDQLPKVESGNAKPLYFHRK
Put plainly: MR agonist assay, MR-luciferase reporter cells. As to conditions: 24 h incubation; 'in contrast' = unlike LEO 134310, which gave no significant activation. On the procedure:
Assays were performed at Indigo Biosciences according to standard protocols. In brief, MR-luciferase reporter cells were incubated with medium containing charcoal-stripped fetal bovine serum and incubated with test and reference compounds for 24 h before measuring luminescence. Data were fitted by the means of four parameter logistic regression.
In general terms: In a reporter assay the amount or activity of a reporter protein is the signal.

In a further test the target is T2, GR (Homo sapiens, UniProt P04150).
T2 sequence (P04150 1-777): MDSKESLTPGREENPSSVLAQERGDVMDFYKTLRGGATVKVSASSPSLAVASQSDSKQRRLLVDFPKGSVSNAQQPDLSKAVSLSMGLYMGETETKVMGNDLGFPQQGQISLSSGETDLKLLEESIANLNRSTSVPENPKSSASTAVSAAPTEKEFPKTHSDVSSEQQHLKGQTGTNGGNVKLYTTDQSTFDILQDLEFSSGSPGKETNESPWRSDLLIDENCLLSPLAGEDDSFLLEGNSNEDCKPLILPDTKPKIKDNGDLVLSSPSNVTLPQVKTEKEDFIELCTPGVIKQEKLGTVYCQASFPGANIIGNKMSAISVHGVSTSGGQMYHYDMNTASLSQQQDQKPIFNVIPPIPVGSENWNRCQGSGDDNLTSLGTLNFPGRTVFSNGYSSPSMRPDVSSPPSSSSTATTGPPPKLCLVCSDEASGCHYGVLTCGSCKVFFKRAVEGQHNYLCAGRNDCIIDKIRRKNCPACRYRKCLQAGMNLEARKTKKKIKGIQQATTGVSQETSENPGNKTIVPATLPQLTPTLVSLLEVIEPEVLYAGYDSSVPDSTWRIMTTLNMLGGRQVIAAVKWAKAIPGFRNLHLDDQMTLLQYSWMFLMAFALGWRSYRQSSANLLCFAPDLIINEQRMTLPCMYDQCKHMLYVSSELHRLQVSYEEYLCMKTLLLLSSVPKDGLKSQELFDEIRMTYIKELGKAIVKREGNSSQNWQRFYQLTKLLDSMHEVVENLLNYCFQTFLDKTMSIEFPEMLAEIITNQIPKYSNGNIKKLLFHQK
Put plainly: Reversal of GR agonist-mediated suppression of cytokine release from LPS-stimulated PBMC by RU486. Set-up: endogenous in cells. As to conditions: 100 nM agonist. On the procedure:
PMBCs were isolated from human buffy coats obtained in accordance with national legislation and following in-house protocol at Charles River Laboratories (Leiden, Netherlands). Test compounds and PBMCs were incubated with 10 ng/ml LPS (Sigma) overnight at 37°C in HEPES and Glutamax-containing RPMI medium supplemented with 0.5% human serum albumin (human PBMCs) and penicillin/streptomycin. TNF-alpha, IL-1-beta, and IL-6 were measured by MSD multiplex assay (Meso Scale Discovery).Compound concentration in dermis (Figure S4)

The next test has as its system GILZ mRNA. Put plainly: Human skin explant, GILZ gene expression. As to conditions: human skin explants, topical, 24 h; for GILZ Relative ED50: weighted geometric mean ± SD. The method, then:
NativeSkin models (NS002) were purchased from Genoskin, France. Human skin samples from abdominal reduction surgery were obtained by Genoskin from donors upon written informed consent. Full ethical approval for the study protocol was obtained from the French ethical research committee (Comité de Protection des Personnes), and authorization was given by the French Ministry of Research. The study was conducted according to the Declaration of Helsinki. 8 mm punch biopsies were excised and embedded in a fibrin-based matrix in transwells and a silicone ring was firmly attached to the surface covering the outer edge of the skin biopsy to prevent lateral diffusion of topically applied formulations. Skin models were cultured in a defined hydrocortisone- and serum-free medium provided by Genoskin.
LEO 134310 and reference glucocorticoids were dissolved in propylene carbonate and tested at 4 concentrations in five- or tenfold titrations. Compounds were applied in duplicates or triplicates on the skin surface (0.5 cm^2) in a volume of 2 µL and incubated for 24 h. Vehicle and untreated samples were included for basal level of expression.
RNA was extracted and qPCR was performed using TaqMan gene expression assays (FKBP5-Hs01561006_m1, TSC22D3 (GILZ)-Hs00608272_m1, TXNIP-Hs01006900_g1, ACTB-Hs99999903_m1, PPIA-Hs99999904_m1, GAPDH-Hs99999905_m1). Gene expression of FKBP5,TSC22D3 (GILZ), and TXNIP was normalized to the geometric mean of the reference genes ACTB, PPIA and GAPDH.
Doses were expressed as compound (API) concentrations (µg/mL) in the applied formulations. Relative upregulation of FKBP5 was estimated as − fold to vehicle treated control. Effective doses (Emax and ED50) were determined from a sigmoid Emax model in Phoenix64 version 8.0, Pharsight, Certara. Mean values and standard deviation of Emax and ED50 were calculated by weighing individual experiments based on the intra- and inter-experiment variability.

Consider `CCC(=O)O[C@]1(C(=O)CCl)[C@@H](C)C[C@H]2[C@@H]3CCC4=CC(=O)C=C[C@]4(C)[C@@]3(F)[C@@H](O)C[C@@]21C` [CP, Clobetasol Propionate], for which the “Activation of MR (luciferase activity)” value in test [1] is reported as “in contrast”. Moreover, on GR, the “Reversal by GR antagonist RU486 of inhibition of LPS-induced cytokine release” value is reported as “could be reversed in a concentration-dependent manner”. Further, in the test with GILZ mRNA, the “GILZ Emax” value was 7.7 ± 2.5^NS fold to control and the “GILZ Relative ED50” value is 1.1 ± 0.25^NS µg/mL.
On the same counts, the results for `C[C@H](NC(=O)[C@H]1CCCO1)[C@H](Oc1ccc(C(=O)O[C@H]2CCCN(C(=O)[C@H]3COC(=O)C3)C2)cc1)c1ccc(C2CC2)cc1` [LEO 134310] are “No significant activation of MR”, “could be reversed in a concentration-dependent manner”, 6.7 ± 2.7^NS fold to control and 270 ± 110 µg/mL.
In the case of `CCCCC(=O)O[C@]1(C(=O)CO)[C@@H](C)C[C@H]2[C@@H]3CCC4=CC(=O)C=C[C@]4(C)[C@@]3(F)[C@@H](O)C[C@@]21C` [BMV, Betamethasone Valerate], the “Activation of MR (luciferase activity)” value in test [1] is listed as “in contrast”. Further, the “Reversal by GR antagonist RU486 of inhibition of LPS-induced cytokine release” value on GR is on record as “could be reversed in a concentration-dependent manner”. Besides, in the test with GILZ mRNA, the “GILZ Emax” value was 6.1 ± 3.7 fold to control and the “GILZ Relative ED50” value came out at 5.1 ± 27 µg/mL.

Values taken from publication PMC8795149, “Characterization of a novel non-steroidal glucocorticoid receptor agonist optimized for topical treatment” (Scientific Reports, 2022).
